# In US7612071B2, “Compositions and methods employing aminopterin” (Syntrix Biosystems, Inc., priority 2004, dated 2009):
# Where two headings read alike, the source gives them in different places.
# Tests used:
# [1] = mice, 4 weekly ip doses (aminopterin 0.03 mg/kg, methotrexate 0.3 mg/kg); days 1 and 22 after last dose
# [2] = oral doses greater than about 7.5 mg/m^2; cited from earlier work
# [3] = MTX 15-25 mg/m^2 PO, n=22, prior art; cited from earlier work
# [4] = system: standard and high-risk ALL; settings: for Toxicity Component: Antifolate dose causing 5.8% of the population to have the toxicity: Elevations in liver enzymes >5 times normal (severe hepatotoxicity)
# [5] = MTX 15-25 mg/m^2 PO, n=38, prior art; cited from earlier work
# [6] = MTX 15-25 mg/m^2, pediatric patients, n=22, prior art; cited from earlier work
# [7] = AMT 2 mg/m^2 PO x 2 (n=75), MTX 25 mg/m^2 PO x 4 (n=41)
# [8] = AMT 2 mg/m^2 PO x 2 (n=81), MTX 25 mg/m^2 PO x 4 (n=42)
# [9] = AMT 2 mg/m^2 PO x 2 (n=104), MTX 25 mg/m^2 PO x 4 (n=63)
compound,measurement,setting,value
"CN(Cc1cnc2nc(N)nc(N)c2n1)c1ccc(C(=O)N[C@@H](CCC(=O)O)C(=O)O)cc1 [MTX, methotrexate, reference compound]","antifolate content in liver, aminopterin vs methotrexate",[1],no different
same,oral bioavailability,[2],≤ 44%
same,Interpatient coefficient of variation of oral bioavailability,[3],59%
same,"Event-free survival (EFS) at 24-months, Kaplan Meier","[4]; 25 high risk patients receiving aminopterin, standard risk patients receiving methotrexate",86%
same,"Coefficient of variation of toxicity, absolute neutrophil count in consolidation",[4]; [7],85%
same,Mean absolute neutrophil count in consolidation,[4]; [7],1919 cells/μL
same,"Coefficient of variation of toxicity, platelet counts in consolidation",[4]; [8],47%
same,Mean platelet counts in consolidation,[4]; [8],312 cells × 10^3/μL
same,"Coefficient of variation of toxicity, level of liver enzymes above normal",[4]; [9],36%
same,Mean level of liver enzymes above normal,[4]; [9],177 IU/L ALT
same,"Coefficient of variation of toxicity, level of liver enzymes above normal","[4]; AMT 2 mg/m^2 PO x 2 (n=104), MTX 25 mg/m^2 PO x 4 (n=63), listed as methotrexate",36%
same,Toxicity Component: Antifolate dose with same toxicity as MTX at 100 mg/m^2/wk,[4]; Any elevation of liver enzymes,100 mg/m^2/wk
same,Toxicity Component: Antifolate dose causing 5.8% of the population to have the toxicity,[4],<100 mg/m^2/wk
same,Toxicity Component: Antifolate dose causing 5.8% of the population to have the toxicity,[4]; listed as methotrexate,less than 100 mg/m^2/wk
same,Toxicity Component: Antifolate dose with same toxicity as MTX at 100 mg/m^2/wk,[4]; Hospital admissions,100 mg/m^2/wk
same,Toxicity Component: Antifolate dose with same toxicity as MTX at 100 mg/m^2/wk,[4]; Mucositis,100 mg/m^2/wk
same,Toxicity Component: Antifolate dose with same toxicity as MTX at 100 mg/m^2/wk,[4]; Myelosuppression,100 mg/m^2/wk
same,Toxicity Component: Antifolate dose with same toxicity as MTX at 100 mg/m^2/wk,[4]; Neutropenia,100 mg/m^2/wk
same,Toxicity Component: Antifolate dose with same toxicity as MTX at 100 mg/m^2/wk,[4]; Thrombocytopenia,100 mg/m^2/wk
same,Toxicity Component: Antifolate dose with same toxicity as MTX at 100 mg/m^2/wk,[4]; Treatment interruptions,100 mg/m^2/wk
same,Toxicity Component: Antifolate dose with same toxicity as MTX at 100 mg/m^2/wk,[4]; eAMT and eMTX (marrow exposure),100 mg/m^2/wk
same,Mean intrapatient coefficient of variation of oral bioavailability,[5],34%
same,Interpatient oral bioavailability (%),[6],44%
same,Maximum (%) oral bioavailability,[6],95%
same,Minimum (%) oral bioavailability,[6],6%
